Laboratory results from US20240294544A1, “NEW SUBSTITUTED PYRIDINES AS FUNGICIDES” (BASF SE, priority 2021, published 2024).

How the values were obtained:
Assay type in all cases: cell-based
[1] = test system: Septoria tritici; assay: Comparative Example 1: activity against leaf blotch on wheat caused by Septoria tritici (microtiter plate); conditions: at 125 ppm; relative to compound-free control (100%); 405 nm, 7 days after inoculation
Experimental: (§1) The active compounds were formulated separately as a stock solution having a concentration of 10000 ppm in dimethyl sulfoxide. The stock solutions were mixed according to the ratio, pipetted onto a micro titer plate (MTP) and diluted with water to the stated concentrations. A spore suspension of Septoria tritici in an aqueous biomalt or yeast-bactopeptone-glycerine or DOB solution was then added. The plates were placed in a water vapor-saturated chamber at a temperature of 18° C. Using an absorption photometer, the MTPs were measured at 405 nm 7 days after the inoculation.
(§2) The measured parameters were compared to the growth of the active compound-free control variant (100%) and the fungus-free blank value to determine the relative growth in % of the pathogens in the respective active compounds.

[2] = test system: Leptosphaeria nodorum; assay: Comparative Example 2: activity against wheat leaf spots caused by Leptosphaeria nodorum (microtiter plate); conditions: relative to compound-free control (100%), 405 nm, 7 days after inoculation
Experimental: as §1, with “Leptosphaeria nodorum” for “Septoria tritici”, “DOE” for “DOB”
as §2

[3] = test system: Colletotrichum orbiculare; assay: Comparative Example 3: activity against anthracnose caused by Colletotrichum orbiculare in the microtiterplate test; conditions: at 2 ppm; relative to compound-free control (100%); 405 nm, 7 days after inoculation
Experimental: as §1, with “Colletotrichum orbiculare” for “Septoria tritici”, “bio malt” for “biomalt or yeast-bactopeptone-glycerine or DOB”
as §2

[4] = test system: Botrytis cinerea; assay: Example 1: activity against the grey mold Botrytis cinerea in the microtiterplate test; conditions: 31 ppm active substance; relative to compound-free control (100%); 405 nm, 7 days after inoculation
[5] = test system: Fusarium culmorum; assay: Example 2: activity against Fusarium culmorum in the microtiterplate test; conditions: 31 ppm active substance; relative to compound-free control (100%); 405 nm, 7 days after inoculation
Experimental: The active compounds were formulated separately as a stock solution having a concentration of 10000 ppm in dimethyl sulfoxide.
as §1, with “The” for “The active compounds were formulated separately as a stock solution having a concentration of 10000 ppm in dimethyl sulfoxide. The”, “Fusarium culmorum” for “Septoria tritici”
as §2

CC1(c2ccc(Cl)cc2)N=C(c2ccc(Cl)nc2)c2ccccc2O1 (stereo not shown) [reference compound]
Growth (%) at 125 pm [1]: 69%
Growth (%) at 125 pm [2]: 47%
Growth (%) at 2 pm [3]: 88%

Cc1cc(C2=NC(C)(C(C)(C)C)Oc3ccccc32)cnc1C(F)F (stereo not shown) [Ex-3]
growth of the pathogen [4]: 0%

CC1(Cc2ccc(F)cc2)N=C(c2ccc(Cl)nc2)c2ccccc2O1 (stereo not shown) [reference compound]
Growth (%) at 125 pm [1]: 93%
Growth (%) at 125 pm [2]: 43%
Growth (%) at 2 pm [3]: 96%

Cc1cc(C2=NC(C)(C(C)(C)C)Oc3ccccc32)cnc1C (stereo not shown) [Ex-2]
growth of the pathogen [4]: 0%

Cc1cc(C2=NC(C)(Cc3ccc(F)cc3)Oc3ccccc32)cnc1C(F)F (stereo not shown) [Ex-58]
Growth (%) at 125 pm [1]: 73%
Growth (%) at 125 pm [2]: 8%
Growth (%) at 2 pm [3]: 55%

Cc1cc(C2=NC3(CCC(C)(C)C3)Oc3ccccc32)cnc1C (stereo not shown) [Ex-4]
growth of the pathogen [4]: 0%
growth of the pathogen [5]: 1%

Cc1cc(C2=NC(C)(C(C)C)Oc3ccccc32)cnc1C (stereo not shown) [Ex-5]
growth of the pathogen [4]: 0%

Cc1cc(C2=NC(C)(c3ccc(Cl)cc3)Oc3ccccc32)cnc1C(F)F (stereo not shown) [Ex-51]
Growth (%) at 125 pm [1]: 46%
Growth (%) at 125 pm [2]: 15%
Growth (%) at 2 pm [3]: 22%

Cc1cc(C2=NC(C)(C)Oc3ccccc32)cnc1C [Ex-6]
growth of the pathogen [4]: 0%
growth of the pathogen [5]: 1%
